Like-named read-outs stand apart in the source and are kept apart here.

For data set [1], the system named is E. coli. Description: Antimicrobial efficacy, CFU count after 30 min contact. The data set is classed as cell-based. The conditions noted are these: ε-polylysine 250 ppm, AG 6210 0. Here is the method: 100 μl of an E. coli suspension (˜1.5×10^8 CFUs) was added to 900 μl of a freshly prepared dilute ε-polylysine/AG6210 mixture of the invention (prepared as described above) and incubated for 30 min at room temperature. Reaction was stopped by adding 9 ml of neutraliser. Mixture was then diluted 1:10 and 1:100 and 100 μl of the neat mixture and each dilution was applied to agar plates. Plates were incubated for 48 hrs at 37° C. and CFUs counted.
The antimicrobial efficacy of the following dilute ε-polylysine/AG6210 mixtures, prepared in accordance with the invention, was assessed as described above.

Data set [2] can be described thus: Turbidity of diluted mixtures, OD at 570 nm. The data set is classed as physicochemical. The conditions noted are these: diluted from stock of 100000 ppm AG6210 and/or 25000 ppm ε-polylysine, analysed immediately. The source says: In general the experiments described in Examples 2 to 17 comprise two stages. First stage is the preparation of a concentrated solution of the surfactant(s) and crystal substrate in drinking water. This stage may involve the mixing of a pre-prepared stock solution(s) of the surfactant in drinking water and a pre-prepared stock solution of the substrate in drinking water. The exact procedure used is set out in each Example. The second stage is the dilution of aliquots of the stock solution with single aliquots of drinking water in glass vessels to result in diluted mixtures with varying (theoretical) concentrations of surfactant(s) and substrate as recited in the Tables of each Example. The diluted mixtures were incubated for the time and at the temperature recited in each Example before the amount of particulate matter in the mixture was assessed. This assessment was by spectrophotometer set to measure OD at a wavelength of 570 nm in Example 2 and, for Examples 3 to 17, by naked eye upon agitation of the vessel and illumination by electric light. […]
Test mixtures (100 ml) were prepared by pipetting appropriate amounts of the concentrated solution into glass flasks and adjusting the volume to 100 ml with drinking water. Mixtures were analysed immediately by measuring OD at 570 nm. […]

The conditions of data set [3]: H2O, 20° C., cited from earlier work.
A short description of data set [4]: Critical micelle concentration (CMC). The data set is classed as physicochemical. The conditions noted are these: H2O, 20° C.; approx. conversion of the mM value. The source says: The term “critical micelle concentration” refers to the concentration of a surfactant in a polar solvent above which the surfactant molecules will spontaneously arrange as a micelle. In accordance with the invention, this value may be expressed in any convenient units of concentration, with the exception that when CMC values are undergoing comparison, the value is expressed as a molar concentration (i.e. in units of M, mM, μM, etc., as appropriate). In the present context a micelle is considered to be a colloid arrangement of surfactant molecules in a polar solvent in which the hydrophilic head groups are oriented towards the polar solvent in a substantially spherical shape and the hydrophobic tail groups are sequestered to the interior of the sphere. In the present context a reference to the CMC of a surfactant is a reference to the CMC of the surfactant in the conditions of the aqueous liquid composition of the invention (including physical conditions such as temperature), unless otherwise indicated. For convenience, this may be taken as the CMC of the surfactant in isolation in pure water at 20° C. CMC values may be calculated by any convenient means, preferably by one of the methods described in Mukerjee P., et. al, Critical Micelle Concentrations of Aqueous Surfactant Systems, United States Department of Commerce, Nat. Stnd. Ref. Data Ser., Nat. Bur. Stand., February 1971 (U.S.).

With ε-polylysine, the figures for the “CFUs in each dilution of E. coli culture” value in data set [1] (dilution 1:1), in data set [1] (dilution 1:10) and in data set [1] (dilution 1:100) were 100 CFUs, 40 CFUs and 25 CFUs, respectively. The “Turbidity upon dilution (OD at 570 nm)” value in data set [2] is listed as “do not show turbidity”. For `CCCCCCCCCC[N+](C)(C)CCCCCCCCCC.[Cl-]` [di-n-decyldimethyl ammonium chloride], the CMC in data set [3] is reported as 1.5 mM. For the compound alkyl-dimethylbenzyl ammonium chloride, the CMC in data set [3] is recorded as 0.7 mM. In data set [4], `CCCCCCCCO[C@@H]1O[C@H](CO)[C@@H](O)[C@H](O)[C@H]1O` [n-octyl-β-D-glucopyranoside] registered a CMC of roughly 2800 ppm. As for `CCCCCCCS[C@@H]1O[C@H](CO)[C@@H](O)[C@H](O)[C@H]1O` [n-heptyl-β-D-thioglucoside], in data set [3], the CMC result is “CMC (H2O, 20° C.) of n-heptyl-β-D-thioglucoside: 29 mM”.

With `CCCCCCCCCCO[C@@H]1O[C@H](CO)[C@@H](O[C@H]2O[C@H](CO)[C@@H](O)[C@H](O)[C@H]2O)[C@H](O)[C@H]1O` [n-decyl-β-D-maltopyranoside], the CMC entry in data set [3] is listed as “CMC (H2O, 20° C.) of n-decyl-β-D-maltopyranoside: 1.6 mM”.

In the case of `CCCCCCCCC(=O)N(C)C[C@H](O)[C@@H](O)[C@H](O)[C@H](O)CO` [n-nonanoyl-N-methylglucamine], the CMC result was “CMC (H2O, 20° C.) of n-nonanoyl-N-methylglucamine: 19-25 mM” in data set [3] and “CMC (H2O, 20° C.) of N-nonanoyl-N-methylglucamine: 19-25 mM” in data set [3] (listed as N-nonanoyl-N-methylglucamine). For `CCCCCCCCO[C@@H]1O[C@H](CO)[C@@H](O[C@H]2O[C@H](CO)[C@@H](O)[C@H](O)[C@H]2O)[C@H](O)[C@H]1O` [n-octyl-β-D-maltopyranoside], the CMC result in data set [3] is recorded as “CMC (H2O, 20° C.) of n-octyl-β-D-maltopyranoside: 23 mM”.

Values taken from US10470459B2, “Antimicrobial preparations, methods for preparing the same and uses thereof to combat microorganisms” (IPABC LTD, priority 2014, dated 2019).
